Series [1] has as its system H345 xenograft. The following applies: 100 mg/kg/day, H345 xenograft model; cited from earlier work.
Series [2] concerns H146. Nature of the series: In vitro anti-proliferation assay (ATPlite) in BCL-XL-dependent small cell lung cancer cell line H146. It is filed as cell-based. Particulars: for IC50: Homo sapiens, NCI-H146, about 72 hours, 5% FBS. As to the method:
(§1) Cell antiproliferation is assayed by PerkinElmer ATPlite™ Luminescence Assay System. Briefly, the various test cancer cell lines are plated at a density of about 1×10^4 cells per well in Costar 96-well plates, and are incubated with different concentrations of compounds for about 72 hours in medium supplemented with 5% FBS. One lyophilized substrate solution vial is then reconstituted by adding 5 mL of substrate buffer solution, and is agitated gently until the solution is homogeneous. About 50 μL of mammalian cell lysis solution is added to 100 μL of cell suspension per well of a microplate, and the plate is shaken for about five minutes in an orbital shaker at ˜700 rpm. This procedure is used to lyse the cells and to stabilize the ATP. Next, 50 μL substrate solution is added to the wells and microplate is shaken for five minutes in an orbital shaker at ˜700 rpm. Finally, the luminescence is measured by a PerkinElmer TopCount® Microplate Scintillation Counter. Such assays, carried out with a range of doses of test compounds, allow the determination of the cellular anti-antiproliferative IC50 of the compounds of the present invention.
On the technique in general: Cellular ATP, detected with luciferase, serves as a proxy for viable cell number.

The test system of series [3] is xenograft models of small-cell lung cancer and acute lymphoblastic leukemia. The following applies: single agent; cited from earlier work.
Series [4] concerns circulating platelets. The following applies: clinical trial, patients; cited from earlier work.
In series [5] the target is Bcl-w (Homo sapiens (Human), UniProt Q92843). The following applies: cited from earlier work.
The test system of series [6] is SCLC H146 cell line. Particulars: read-out: IC50 against SCLC H146 cell line; cited from earlier work.
The conditions of series [7]: cited from earlier work.
For series [8] the following is noted: cited from earlier work. This is another data set of the same source.
Series [9] concerns the target Bcl-2 (Homo sapiens (Human), UniProt P10415). Nature of the series: Bcl-2 competition binding (fluorescence polarization) assay. The following applies: BH3 peptide, 3 hours incubation at room temperature. As for the experimental part: Biological Example 1: Bcl-2 Competition Binding (Fluorescence Polarization) Assay
This binding assay was performed in 96-well plate and with each assay contained 15 and 30 nM of labeled peptide and purified Bcl-2 protein (purchased from R&D Systems, Inc). The assay buffer contained 20 mM Hepes (pH 7.0), 50 mM KCl, 5 mM MgCl2, 20 mM Na2MoO4, 0.1 mg/ml Bovine Gamma Globulin and 0.01% NP40. Compounds were diluted in DMSO and added to the final assay with concentration range from 20 uM to 2 nM. The polarization degree (mP) value was determined by BioTek Synergy II with background subtraction after 3 hours of incubation at room temperature. IC50 was calculated using Prism software with sigmoidal dose-response curve fitting. ABT-737 was used as reference compound. Such assays, carried out with a range of doses of test compounds, allow the determination of an approximate IC50 value.

The test system of series [10] is RS4;11. As to the kind of experiment: In vitro anti-proliferation assay (ATPlite) in BCL-2-dependent acute lymphoblastic leukemia cell line RS4;11. The format is cell-based. The following applies: Homo sapiens, about 72 hours, 5% FBS. As for the experimental part: Biological Example 2: In Vitro Anti-Proliferation Assay in BCL-2-Dependent Acute Lymphoblastic Leukemia Cell Line RS4;11
as §1, with “invention. The following table lists the IC50 values of certain compounds of the invention.” for “invention.”

Molecules are shown by their SMILES.

Sequence of Bcl-2 (P10415 whole entry): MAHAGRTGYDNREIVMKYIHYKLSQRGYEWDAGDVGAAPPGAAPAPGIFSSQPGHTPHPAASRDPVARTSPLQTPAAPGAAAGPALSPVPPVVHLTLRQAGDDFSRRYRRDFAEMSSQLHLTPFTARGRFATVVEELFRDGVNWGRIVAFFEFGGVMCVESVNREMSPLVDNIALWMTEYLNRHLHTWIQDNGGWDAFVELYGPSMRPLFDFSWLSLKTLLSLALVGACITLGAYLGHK
Sequence of Bcl-w (Q92843 whole entry): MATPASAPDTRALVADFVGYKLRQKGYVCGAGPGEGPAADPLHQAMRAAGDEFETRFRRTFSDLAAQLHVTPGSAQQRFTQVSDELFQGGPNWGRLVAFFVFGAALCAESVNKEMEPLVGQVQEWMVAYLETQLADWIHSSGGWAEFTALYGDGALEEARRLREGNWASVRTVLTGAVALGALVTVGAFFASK

As a reminder, the TGI is the reduction of tumour growth relative to the control group. By IC50 is commonly meant the midpoint of a concentration-inhibition curve. One may read the Ki as the equilibrium dissociation constant of an inhibitor or competing ligand from its target. Turning to `CC1(C)CCC(c2ccc(Cl)cc2)=C(CN2CCN(c3ccc(C(=O)NS(=O)(=O)c4ccc(N[C@H](CCN5CCOCC5)CSc5ccccc5)c(S(=O)(=O)C(F)(F)F)c4)cc3)CC2)C1` [ABT-263], in series [1], the TGI is recorded as 80% and the “treated tumors indicating at least a 50% reduction in tumor volume” value is on record as 20%. Besides, the IC50 in series [2] amounted to 60 nM. For the same molecule, the “tumor response, oral administration alone” value in series [3] is on record as “complete tumor regressions”. Besides, the “effect on number of circulating platelets” value in series [4] is given as “rapid, concentration-dependent decrease”. Besides, the Ki in series [5] is at most 1 nM. Also, the concentration for half-maximal inhibition (IC50) in series [6] was 110 nM.

As to `CN(C)CC[C@H](CSc1ccccc1)Nc1ccc(S(=O)(=O)NC(=O)c2ccc(N3CCN(Cc4ccccc4-c4ccc(Cl)cc4)CC3)cc2)cc1[N+](=O)[O-]` [ABT-737], in series [7], the aqueous solubility entry is on record as “low”. In addition, in series [8], the oral bioavailability result is on record as “not orally bioavailable”.

For `CC1(C)CCC(CN2CCN(c3ccc(C(=O)NS(=O)(=O)c4ccc(NCC5CCOCC5)c([N+](=O)[O-])c4)c(-n4ncc5nc6[nH]ccc6cc54)c3)CC2)=C(c2ccc(Cl)cc2)C1` [Example 4, 4-(4-((4′-chloro-5,5-dimethyl-3,4,5,6-tetrahydro-[1,1′-biphenyl]-2-yl)methyl)piperazin-1-yl)-N-((3-nitro-4-(((tetrahydro-2H-pyran-4-yl)methyl)amino)phenyl)sulfonyl)-2-(pyrazolo[4,3-b]pyrrolo[3,2-e]pyridin-1(5H)-yl)benzamide], the “BCL-2 selectivity concluded from H146 IC50” value in series [2] (BCL-XL dependent cell line H146) is given as “BCL-2 selective inhibitor”. Moreover, the IC50 was above 2000 nM in series [2], below 10 nM in [9] and below 15 nM in series [10].

Turning to `CC1(C)CCC(CN2CCN(c3ccc(C(=O)NS(=O)(=O)c4ccc(N5CCOCC5)c([N+](=O)[O-])c4)c(-n4ncc5nc6[nH]ccc6cc54)c3)CC2)=C(c2ccc(Cl)cc2)C1` [Example 8, 4-(4-((4′-chloro-5,5-dimethyl-3,4,5,6-tetrahydro-[1,1′-biphenyl]-2-yl)methyl)piperazin-1-yl)-N-((4-morpholino-3-nitrophenyl)sulfonyl)-2-(pyrazolo[4,3-b]pyrrolo[3,2-e]pyridin-1(5H)-yl)benzamide], the IC50 in [9] was below 10 nM.

With `CC1(C)CCC(CN2CCN(c3ccc(C(=O)NS(=O)(=O)c4ccc(SCC5CCOCC5)c([N+](=O)[O-])c4)c(-n4ncc5nc6[nH]ccc6cc54)c3)CC2)=C(c2ccc(Cl)cc2)C1` [Example 11, 4-(4-((4′-chloro-5,5-dimethyl-3,4,5,6-tetrahydro-[1,1′-biphenyl]-2-yl)methyl)piperazin-1-yl)-N-((3-nitro-4-(((tetrahydro-2H-pyran-4-yl)methyl)thio)phenyl)sulfonyl)-2-(pyrazolo[4,3-b]pyrrolo[3,2-e]pyridin-1(5H)-yl)benzamide], the IC50 in series [9] was below 10 nM.

`CC1(C)CCC(CN2CCN(c3ccc(C(=O)NS(=O)(=O)c4ccc(NCC5(F)CCOCC5)c([N+](=O)[O-])c4)c(-n4ncc5nc6[nH]ccc6cc54)c3)CC2)=C(c2ccc(Cl)cc2)C1` [Example 12, 4-(4-((4′-chloro-5,5-dimethyl-3,4,5,6-tetrahydro-[1,1′-biphenyl]-2-yl)methyl)piperazin-1-yl)-N-((4-(((4-fluorotetrahydro-2H-pyran-4-yl)methyl)amino)-3-nitrophenyl)sulfonyl)-2-(pyrazolo[4,3-b]pyrrolo[3,2-e]pyridin-1(5H)-yl)benzamide]: the IC50 in series [2] is above 2000 nM; in series [9], below 10 nM; in series [10], below 15 nM.

In the case of `CN1CCC(CNc2ccc(S(=O)(=O)NC(=O)c3ccc(N4CCN(CC5=C(c6ccc(Cl)cc6)CC(C)(C)CC5)CC4)cc3-n3ncc4nc5[nH]ccc5cc43)cc2[N+](=O)[O-])CC1` [Example 13, 4-(4-((4′-chloro-5,5-dimethyl-3,4,5,6-tetrahydro-[1,1′-biphenyl]-2-yl)methyl)piperazin-1-yl)-N-((4-(((1-methylpiperidin-4-yl)methyl)amino)-3-nitrophenyl)sulfonyl)-2-(pyrazolo[4,3-b]pyrrolo[3,2-e]pyridin-1(5H)-yl)benzamide], the IC50 in series [9] is below 10 nM.

As to `CC1(C)CCC(CN2CCN(c3ccc(C(=O)NS(=O)(=O)c4ccc(NCC5(F)CCN(C6COC6)CC5)c([N+](=O)[O-])c4)c(-n4ncc5nc6[nH]ccc6cc54)c3)CC2)=C(c2ccc(Cl)cc2)C1` [Example 14, 4-(4-((4′-chloro-5,5-dimethyl-3,4,5,6-tetrahydro-[1,1′-biphenyl]-2-yl)methyl)piperazin-1-yl)-N-((4-(((4-fluoro-1-(oxetan-3-yl)piperidin-4-yl)methyl)amino)-3-nitrophenyl)sulfonyl)-2-(pyrazolo[4,3-b]pyrrolo[3,2-e]pyridin-1(5H)-yl)benzamide], the IC50 in series [9] is below 10 nM.

Turning to `CC1(C)CCC(CN2CCN(c3ccc(C(=O)NS(=O)(=O)c4ccc(NC[C@@H]5CN(C6COC6)CCO5)c([N+](=O)[O-])c4)c(-n4ncc5nc6[nH]ccc6cc54)c3)CC2)=C(c2ccc(Cl)cc2)C1` [Example 15, (R)-4-(4-((4′-chloro-5,5-dimethyl-3,4,5,6-tetrahydro-[1,1′-biphenyl]-2-yl)methyl)piperazin-1-yl)-N-((3-nitro-4-(((4-(oxetan-3-yl)morpholin-2-yl)methyl)amino)phenyl)sulfonyl)-2-(pyrazolo[4,3-b]pyrrolo[3,2-e]pyridin-1(5H)-yl)benzamide], the IC50 in series [9] was below 10 nM.

For `CN1CCC(F)(CNc2ccc(S(=O)(=O)NC(=O)c3ccc(N4CCN(CC5=C(c6ccc(Cl)cc6)CC(C)(C)CC5)CC4)cc3-n3ncc4nc5[nH]ccc5cc43)cc2[N+](=O)[O-])CC1` [Example 16, 4-(4-((4′-chloro-5,5-dimethyl-3,4,5,6-tetrahydro-[1,1′-biphenyl]-2-yl)methyl)piperazin-1-yl)-N-((4-(((4-fluoro-1-methylpiperidin-4-yl)methyl)amino)-3-nitrophenyl)sulfonyl)-2-(pyrazolo[4,3-b]pyrrolo[3,2-e]pyridin-1(5H)-yl)benzamide], in [9], the IC50 is below 10 nM.

On to `CC1(C)CCC(CN2CCN(c3ccc(C(=O)NS(=O)(=O)c4ccc(OCC5(F)CCN(C6COC6)CC5)c([N+](=O)[O-])c4)c(-n4ncc5nc6[nH]ccc6cc54)c3)CC2)=C(c2ccc(Cl)cc2)C1` [Example 17, 4-(4-((4′-chloro-5,5-dimethyl-3,4,5,6-tetrahydro-[1,1′-biphenyl]-2-yl)methyl)piperazin-1-yl)-N-((4-((4-fluoro-1-(oxetan-3-yl)piperidin-4-yl)methoxy)-3-nitrophenyl)sulfonyl)-2-(pyrazolo[4,3-b]pyrrolo[3,2-e]pyridin-1(5H)-yl)benzamide], for which, in [9], the IC50 is below 10 nM.

Turning to `CC1(C)CCC(CN2CCN(c3ccc(C(=O)NS(=O)(=O)c4ccc(OCC5CCOCC5)c([N+](=O)[O-])c4)c(-n4ncc5nc6[nH]ccc6cc54)c3)CC2)=C(c2ccc(Cl)cc2)C1` [Example 18, 4-(4-((4′-chloro-5,5-dimethyl-3,4,5,6-tetrahydro-[1,1′-biphenyl]-2-yl)methyl)piperazin-1-yl)-N-((3-nitro-4-((tetrahydro-2H-pyran-4-yl)methoxy)phenyl)sulfonyl)-2-(pyrazolo[4,3-b]pyrrolo[3,2-e]pyridin-1(5H)-yl)benzamide], the IC50 in series [9] was below 10 nM.

Source of the values: US10377755B2, “BCL-2 inhibitors” (Newave Pharmaceutical Inc., priority 2016, dated 2019).
